Source: publication PMC7188728, “A phase I study investigation of metabolism, and disposition of [^14C]-anlotinib after an oral administration in patients with advanced refractory solid tumors” (Cancer Chemotherapy and Pharmacology, 2020)
pIC50: −log10 of the molar value. Counter-ions that a name gives are not always drawn.

How the values were obtained:
[1] = tested on: human cytochrome P450 3A4; parameters: method as in PMID 29441353; details: in vitro; read-out: Half maximum inhibitory concentration; cited from earlier work
[2] = tested on: human cytochrome P450 2C9; parameters: method as in PMID 29441353; details: in vitro; read-out: Half maximum inhibitory concentration; cited from earlier work
[3] = parameters: method as in PMID 29620050; details: rats and dogs; cited from earlier work
[4] = Total radioactivity pharmacokinetics in plasma after single oral [14C]-anlotinib hydrochloride; format: in vivo, human
Procedure: The blood samples were collected before orally administration and 0.5, 2, 4, 8, 10, 12, 24, 48, 72, 96, 120, 144, 168, 192, 216, 240, 288, 312, 384, 408, 456, 480, 552, 840, 888, and 1416 h after orally administration. An aliquot of the blood samples was mixed gently and chilled immediately under − 20 °C; the remainder was centrifuged at 1660 g for 10 min at 4 °C to separate the plasma samples.
(§1) Levels of radioactivity in plasma, urine, and extracts of fecal samples were determined by mixing individual samples with 5 mL scintillation cocktail and determined by counting directly in a liquid scintillation counter (LSC). Blood, fecal homogenates, and post extraction solids were combusted with OX-501 Biological Sample Oxidizer, the ^14CO2 formed were trapped directly in 15 mL scintillation cocktail, followed by counting with LSC. Samples were assayed with a liquid scintillation counter for 5 min.
The peak concentration (Cmax) and the time to Cmax (Tmax) were obtained through the plasma concentration directly. The area under concentration–time curve up to the last measured time point (AUC0−t) was calculated by the trapezoidal rule. The k was estimated by linear regression analysis of the terminal portion of the log concentration–time data, and the elimination half-life (t1/2) was calculated through the coefficient 0.693/k. The renal clearance (CLR) was calculated by dividing the cumulative amount excreted into urine (Cum. Ae−U) by plasma AUC0−t.

[5] = Metabolite radio-profiling (LC-RAM, LC-MS/MS) of plasma, urine and feces; format: in vivo, human
Procedure: An equal volume of 2, 4, 8, 12, 24, and 96 h plasma sample was pooled by time-point across subject 03 ~ 06, to give six pooled plasma samples for metabolite profiling. An appropriate volume (3x, v/v) of acetonitrile was added to a portion of the pooled plasma sample, followed by vortexing ca. 2 min. After storage in a refrigerator for ca. 30 min, the mixture was centrifuged at ca. 10000 g at 4 °C for 10 min. The supernatant was then separated from the PES, which was suspended with water, followed by addition of methanol (2x, v/v) twice. The three extracts were combined and evaporated to dryness under a nitrogen stream by an N-Evap evaporator at room temperature. The residues were reconstituted with an appropriate volume of methanol:water (1:1, v/v) and centrifuged at ca. 10000 g at 4 ℃ for 10 min. The supernatant was subjected to HPLC radio-profiling.
Four pooled human urine samples (subject 03 ~ 06) were pooled from 0 to 432 h based on equal volume ratios from the individual patients across time intervals. In addition, three pooled urine samples (0–48, 48–120 and 360–432 h) (subjects 03–06) were prepared by pooling human urine samples across subjects and time points. Portion of the pooled urine sample was evaporated to a small volume under a nitrogen stream and extracted with methanol (3x, v/v) followed by centrifuged at ca. 10000 g at 4 ℃ for 10 min. The supernatant was reconstituted with an appropriate volume of methanol:water (1:1, v/v) and centrifuged at ca. 10000 g at 4 ℃ for 10 min. The supernatant was subjected to HPLC radio-profiling.
Four human fecal samples (0–432 h) were prepared by pooling feces from individual subjects (Subjects 03–06). In addition, three pooled human fecal samples (0–48, 48–120 and 360–432 h) were prepared by pooling feces samples across subjects and time points. The pooled fecal homogenate was extracted with methanol (3x, v/v) and the mixture was vortexed, and centrifuged at ca. 10000 g at 4 ℃ for 10 min. The supernatant was then separated from the PES, which was suspended with water, followed by addition of methanol twice. The three extracts were combined and evaporated to dryness under a nitrogen stream by an N-Evap evaporator at room temperature. The residues were reconstituted with an appropriate volume of methanol:water (1:1, v/v) and centrifuged at ca. 10000 g at 4 ℃ for 10 min prior to analysis.
HPLC coupled with radioactivity monitor (LC-RAM) was used to isolate and quantitate [^14C] anlotinib and its metabolites. The plasma and fecal extracts as well as urine supernatants were subjected to HPLC separation, fractionation, and eluent collection. The radioactivity in each fraction was monitored by solid scintillation counting using a Packard TopCount® NXT™ Microplate Counter. The radio-profiles were then reconstructed using ARC® Convert software. The peak area of each radioactivity peak/region was integrated using ARC® Evaluation software, and the percent distribution of each peak/region was calculated (%TRA for plasma or %Dose for urine and feces).
Metabolites were characterized and/or identified by LC–MS/MS in conjunction with on-line radioactivity detection. Structures of metabolites were proposed by interpretation of the mass spectral fragmentation pattern, as well as chromatographic behaviors and metabolic pathways.

[6] = tested on: advanced refractory solid tumors; assay: Tumor response evaluation in patients with advanced refractory solid tumors; format: in vivo, human; details: six patients enrolled
[7] = Mass balance: excretion of total radioactivity in urine and feces; format: in vivo, human
Procedure: The urine samples were collected before orally administration and 0–2648 h after orally administration. […] In the process of collecting urine and feces samples of the six patients, because of the excretion particularity of the drug, the samples were not collected continuously every day, but once a week or every 10 days. In this case, the calculation of excretion rate during non-collected days was the multiplication of the first-day excretion rate after non-collected days by the number of non-collected days.
as §1

[8] = six male patients, single oral 14.15 mg/80 or 120 µCi
[9] = suspension here vs capsule in the previous study

## COc1cc2c(Oc3ccc4[nH]c(C)cc4c3F)ccnc2cc1OCC1(N)CC1 [anlotinib, 1-[[4-(4-fluoro-2-methyl-1H-indol-5-yloxy)-6-methoxyquinolin-7-yl]oxy]methyl) cyclopropanamine dihydrochloride]
[1]
  pIC50: 6.96
[2]
  pIC50: 6.60
[3]
  Absorption: absorbed quickly
  Membrane permeability: good membrane permeability
[4]; [8]
  AUC0-last (AUClast) of total radioactivity in plasma, average: 4071 h∙ng Eq./g
  AUC0-∞ of total radioactivity in plasma, average: 13,555 h∙ng Eq./g
  Cmax of total radioactivity (TRA) in plasma, average: 18.80 ng Eq./g
  Tmax of total radioactivity (TRA) in plasma, average: 4.42 h
[4]; [9]
  AUC relative to the published phase I study: twice
  Cmax relative to the published phase I study: twice
[5]; feces, pooled 0–432 h, subjects 03–06, single oral 14.15 mg/120 μCi
  Drug-related component in feces, % of the dose: 5.64 % of the dose
[5]; pooled plasma 2–96 h, subjects 03–06, listed as parent drug
  Drug-related component in human plasma (radio-profile): major drug-related component
[5]; urine, pooled 0–432 h, subjects 03–06, single oral 14.15 mg/120 μCi
  Drug-related component in urine, % of the dose: 0.73 % of the dose
[6]
  Tumor response: partial response (PR): one
  Tumor response: progressive disease (PD): one
[7]; 0 ~ 2648 h, six patients
  Recovery of radioactivity in feces, average: 48.52 % dose
  Recovery of radioactivity in urine, average: 13.51 % dose
  Total recovery rate of radioactivity (urine and feces), average: 62.03 % dose
[7]; Subject 01, 0 ~ 2648 h
  Feces (% dose): 50.73 % dose
  Total recovery rate (% dose): 66.24 % dose
  Urine (% dose): 15.51 % dose
[7]; Subject 02, 0 ~ 2648 h
  Feces (% dose): 42.51 % dose
  Total recovery rate (% dose): 60.96 % dose
  Urine (% dose): 18.45 % dose
[7]; Subject 03, 0 ~ 2648 h
  Feces (% dose): 38.93 % dose
  Total recovery rate (% dose): 50.92 % dose
  Urine (% dose): 11.99 % dose
[7]; Subject 04, 0 ~ 2648 h
  Feces (% dose): 56.80 % dose
  Total recovery rate (% dose): 69.09 % dose
  Urine (% dose): 12.29 % dose
[7]; Subject 05, 0 ~ 2648 h
  Feces (% dose): 59.44 % dose
  Total recovery rate (% dose): 71.86 % dose
  Urine (% dose): 12.42 % dose
[7]; Subject 06, 0 ~ 2648 h
  Feces (% dose): 42.69 % dose
  Total recovery rate (% dose): 53.08 % dose
  Urine (% dose): 10.39 % dose
[7]; after 404–432 h
  Radioactive concentration in feces: 4876 DPM/ml
  Radioactive concentration in urine: 279 DPM/ml
